Assay results as given in patent US20020103172A1, “VITAMIN D3 DERIVATIVES” (priority 1996, published 2002).
Where two headings read alike, the source gives them in different places.

How the values were obtained:
[1] = tested on: HaCaT, a spontaneously immortalized, non-tumorigenic human skin keratinocyte cell line; assay: HaCaT antiproliferative assay measuring 3H-thymidine uptake; type: cell-based; conditions: for potency in the HaCaT-assay (psoriasis model), in words: compared with 1,25(OH)2D3; for HaCaT rel.: ratio between IC50 of 1,25(OH)2D3 and IC50 of the compound, 50% inhibition of 3H-thymidine incorporation, value >1 = more active than 1,25(OH)2D3
From the text: A useful assay for the rating of test compounds for antiproliferative activity in skin cells, e.g. antipsoriatic effect, is the in vitro assay using HaCaT, a spontaneously immortalized, non-tumorigenic human skin keratinocyte cell line (Mørk Hansen, C. et al., J. Invest. Dermatol. 1, 44-48 (1996)), measuring ^3H -thymidine uptake.

mouse spleen lymphocytes = assay: Mixed lymphocyte reaction assay (MLR), allogeneic stimulation, 3H-thymidine incorporation; type: cell-based; conditions: for MLR rel.: ratio between IC50 of 1,25(OH)2D3 and IC50 of the compound, 72 hours incubation, 3H-thymidine incorporation, value >1 = more active than 1,25(OH)2D3
Experimental: An in vitro assay for the rating of test compounds for immunosuppressive potency is the mixed lymphocyte reaction assay, “MLR”, measuring the allogeneic stimulation of mouse spleen lymphocytes: lymphocytes, obtained from the spleens of BALB/c and CB6F1 mice, are stimulated by co-cultivating 5×10^6/ml cells from BALB/c mice (responders) with 7.5×10^6/ml cells from CB6F1 mice (inducers). The mixed cultures of lymphocytes are incubated with the test compounds for 72 hours. Cellular DNA-synthesis is assessed by the incorporation of ^3H-thymidine in the DNA.

calcium metabolism [2] = assay: Calcemic activity in rats in vivo; conditions: calcemic activity relative to 1,25(OH)2D3, low values preferred
Experimental: (§1) The calcemic activity of the compounds was determined in rats in vivo, as previously described (Binderup, L., Bramm, E., Biochem. Pharmacol. 37, 889-895 (1988)).

calcium metabolism [3] = conditions: rat, in vivo
Experimental: as §1

| Calc. rel. (calcium metabolism [2]) | Calc. rel. (calcium metabolism [3]) | Compound | potency in the HaCaT-assay (psoriasis model), in words [1] | HaCaT rel. [1] | immunosuppressive activity (MLR), in words (mouse spleen lymphocytes) | MLR rel. (mouse spleen lymphocytes) |
| --- | --- | --- | --- | --- | --- | --- |
| 0.54 |  | C=C1C(=CC=C2CCCC3(C)C(C(C)CCCCC(O)(CC)CC)=CCC23)CC(O)CC1O [Compound 107, 1(S),3(R)-Dihydroxy-20(R)-(5-ethyl-5-hydroxyhept-1-yl)-9,10-seco-oregna-5(Z),7(E),10(19),16-tetraene] | considerably more potent than 1,25(OH)2D3 | 43 | potent effects | 5 |
|  | 1 | C=C1/C(=C\C=C2/CCC[C@]3(C)[C@@H]([C@H](C)CCCC(C)(C)O)CC[C@@H]23)C[C@@H](O)C[C@@H]1O [1,25, 1α,25-dihydroxy-vitamin D3, reference compound] |  | 1 |  | 1 |
| 1.47 |  | C=C1C(=CC=C2CCCC3(C)C(C(C)C=CC=CC(O)(CC)CC)=CCC23)CC(O)CC1O [Compound 111, 1(S),3(R)-Dihydroxy-20(R)-(5-ethyl-5-hydroxyhepta-1(E),3(E)-dien-1-yl)-9,10-seco-pregna-5(Z),7(E),10(19)16-tetraene] | considerably more potent than 1,25(OH)2D3 | 51 | potent effects | 6.5 |
